The values that follow come from patent publication US12030897B2, “Pyrrolo[2,1-f][1,2,4]triazine derivatives serving as selective HER2 inhibitors and application thereof” (MEDSHINE DISCOVERY INC., priority 2018, dated 2024).

What is called IC50 is the midpoint of a concentration-inhibition curve. High values mean lower potency, low ones higher potency. One may read the T/C as the ratio of treated to control.

Several values for one entry are separate records, joined by “and”; a condition that tells them apart may be missing. Equal values may be shown once. Read-outs that look alike come from different tables or passages of the source.

Data set [1] deals with HER1 (ErbB1) (Homo sapiens (Human), UniProt P00533). The data set can be described thus: In vitro enzyme activity, HER1 (ErbB1), [γ-33P]ATP filter assay. The format is biochemical. How it is done: The object of this test is to detect the in vitro inhibitory activity of the compound against HER1 (ErbB1), HER2 (ErbB2) and HER4 (ErbB4). The enzymes used in this test were human ErbB1, ErbB2 and ErbB4.
(§1) Experimental Steps and Methods (96-Well Plate):
(§2) 5-fold diluted tested compound buffer (5 μL), peptide substrate poly(Glu, Tyr) (4:1) (2.5 μL), ErbB (4-20 ng, 2.5 μL), MnCl2 (50 mM, 1.25 μL), dH2O (3.75 μL) and [γ-^33P]ATP (10 μL) were added, and incubated at 30° C. for 10 min. 3% phosphoric acid was added to terminate the reaction, and 10 μL of the specimen was transferred to Filtermate A. The filter was washed with 75 mM phosphoric acid for three times and methanol once, and transferred to a sealed plastic bag, and a scintillation fluid mixture (4 mL) was added, The intensity of the emitted photons was detected on the scintillation luminescence counter. The photon intensity of the enzyme sample was compared with the photon intensity of the internal control sample, and the level of photon intensity reflected the strength of the tyrosine kinase activity.

Data set [2] concerns the target HER2 (ErbB2) (Homo sapiens (Human), UniProt P04626). The data set can be described thus: In vitro enzyme activity, HER2 (ErbB2), [γ-33P]ATP filter assay. It is filed as biochemical. How it is done: (§3) The object of this test is to detect the in vitro inhibitory activity of the compound against HER1 (ErbB1), HER2 (ErbB2) and HER4 (ErbB4). The enzymes used in this test were human ErbB1, ErbB2 and ErbB4. Eurofins Pharma Discovery Service provided the activity detection method, and the results of the inhibitory activity of the tested compound against HER1, HER2 and HER4 were shown in Table 1.
as §1, §2

Data set [3] concerns the target HER4 (ErbB4) (Homo sapiens (Human), UniProt Q15303). The data set is described as follows: In vitro enzyme activity, HER4 (ErbB4), [γ-33P]ATP filter assay. The format is biochemical. How it is done:
as §3, §1, §2

Data set [4] deals with CYP2C9 (Homo sapiens (Human), UniProt P11712). The data set can be described thus: Inhibition of human liver microsomal cytochrome P450 isoenzyme CYP2C9. The settings on record: human liver microsomes. It is filed as in vitro ADME. How it is done: (§4) The object of this study was to evaluate the effect of Example 4 on the activities of five isoenzymes (CYP1A2, CYP2C9, CYP2C19, CYP2D6 and CYP3A4) of human liver microsomal cytochrome P450 (CYP) using an in vitro test system. The specific probe substrates of CYP450 isozymes were incubated with human liver microsomes and different concentrations of Example 4, and reduced nicotinamide adenine dinucleotide phosphate (NADPH) was added to initiate the reaction. After the reaction was completed, the samples were treated, and liquid chromatography tandem mass spectrometry (LC/MS/MS) was used to detect the metabolites produced by specific substrates.

Data set [5] deals with CYP2C19 (Homo sapiens (Human), UniProt P33261). The data set can be described thus: Inhibition of human liver microsomal cytochrome P450 isoenzyme CYP2C19. It is filed as in vitro ADME. To be noted: human liver microsomes. How it is done:
as §4
Background: Liver microsomes are a subcellular fraction often used to study metabolism.

The target of data set [6] is CYP3A4 (Homo sapiens (Human), UniProt P08684). The data set is described as follows: Inhibition of human liver microsomal cytochrome P450 isoenzyme CYP3A4. The format is in vitro ADME. The settings on record: human liver microsomes. How it is done:
as §4

In data set [7] the test system is human gastric cancer NCI-N87 cell subcutaneous xenograft tumor. The data set can be described thus: In vivo efficacy, NCI-N87 subcutaneous xenograft tumor model. Also on record: species or system BALB/c nude mice. To be noted: 100 mg/kg. How it is done:
Experiment object: to study the efficacy of the tested compound on human gastric cancer NCI-N87 cell subcutaneous xenograft tumor in the BALB/c nude mouse model.
Experimental animals: female BALB/c nude mice, 6 to 8 weeks old, weight: 18 to 22 grams; Supplier: Shanghai Xipuer-Bikai Laboratory Animal Co., Ltd.
Human gastric cancer NCI-N87 cells were cultured in a monolayer in vitro, and the culture conditions were: RPMI-1640 medium with 10% fetal bovine serum, 100 U/mL penicillin, 100 μg/mL streptomycin and 2 mM glutamine, and 37° C., 5% CO2. Conventional digestion treatment with pancreatin-EDTA for passage was carried out twice a week. When the cell saturation was 80% to 90%, the cells were collected, counted and inoculated.
0.2 mL of (10×10^6) NCI-N87 cells were subcutaneously inoculated into the right back of each nude mouse (PBS:Matrigel=1:1). The grouping and administration were started when the average tumor volume reached 130 mm^3.
The tested compound was prepared as a 10 mg/mL solution, and the solvent was 10% NMP+10% ethylene glycol stearate+80% water.
The experimental index was to investigate whether the tumor growth was inhibited, delayed or cured. Tumor diameter was measured twice a week with a vernier caliper. the calculation formula of tumor volume: V=0.5a×b^2, wherein a and b represented the long and short diameters of the tumor, respectively.
The anti-tumor efficacy of the compound was evaluated by TGI (%) or relative tumor proliferation rate T/C (%). TGI (%) reflected the tumor growth inhibition rate.
relative tumor growth rate T/C (%): calculation formula was as follows: T/C %=TRTV/CRTV (TRTV: RTV of the treatment group; CRTV: RTV of the solvent control group). The relative tumor volume (RTV) was calculated according to the results of the tumor measurement. The calculation equation was RTV=Vt/V0, where V0 was the average tumor volume measured at beginning of the grouping and administration (i.e., d0), and Vt was the average tumor volume at the time of a certain measurement. TRTV and CRTV were obtained from the data on the same day.
Statistical analysis included mean value and standard error (SEM) of the tumor volume of each group at each time point. […] The comparison between two groups was analyzed by T-test, and the comparison between three or more groups was analyzed by one-way ANOVA.

Data set [8] can be described thus: Concentration of Example 4 in plasma, tumor tissue and brain tissue (NCI-N87 model, day 21). It is filed as in vivo, BALB/c nude mice. To be noted: BALB/c nude, mouse, 100 mg/kg; for concentration at 0.5 h: day 21, 0.5 h after last administration; for concentration at 1 h: day 21, 1 h after last administration; for concentration at 2 h: day 21, 2 h after last administration. How it is done: On day 21, the whole blood, tumor tissue, and brain tissue of two mice were collected 0.5 hour, 1 hour, and 2 hours after the last administration. The whole blood was centrifuged to prepare plasma, and the tumor tissue and brain tissue were homogenized to prepare tissue homogenate, and the drug concentration in plasma and tissue homogenate was analyzed by the LC-MS/MS method.

The mark [9] stands for this setting: brain tissue, read-out: Drug concentration, brain tissue.
[10] abbreviates: plasma, read-out: Drug concentration, plasma.
[11] abbreviates: tumor tissue, read-out: Drug concentration, tumor tissue.

Chain of HER1 (ErbB1) (P00533 25-1210): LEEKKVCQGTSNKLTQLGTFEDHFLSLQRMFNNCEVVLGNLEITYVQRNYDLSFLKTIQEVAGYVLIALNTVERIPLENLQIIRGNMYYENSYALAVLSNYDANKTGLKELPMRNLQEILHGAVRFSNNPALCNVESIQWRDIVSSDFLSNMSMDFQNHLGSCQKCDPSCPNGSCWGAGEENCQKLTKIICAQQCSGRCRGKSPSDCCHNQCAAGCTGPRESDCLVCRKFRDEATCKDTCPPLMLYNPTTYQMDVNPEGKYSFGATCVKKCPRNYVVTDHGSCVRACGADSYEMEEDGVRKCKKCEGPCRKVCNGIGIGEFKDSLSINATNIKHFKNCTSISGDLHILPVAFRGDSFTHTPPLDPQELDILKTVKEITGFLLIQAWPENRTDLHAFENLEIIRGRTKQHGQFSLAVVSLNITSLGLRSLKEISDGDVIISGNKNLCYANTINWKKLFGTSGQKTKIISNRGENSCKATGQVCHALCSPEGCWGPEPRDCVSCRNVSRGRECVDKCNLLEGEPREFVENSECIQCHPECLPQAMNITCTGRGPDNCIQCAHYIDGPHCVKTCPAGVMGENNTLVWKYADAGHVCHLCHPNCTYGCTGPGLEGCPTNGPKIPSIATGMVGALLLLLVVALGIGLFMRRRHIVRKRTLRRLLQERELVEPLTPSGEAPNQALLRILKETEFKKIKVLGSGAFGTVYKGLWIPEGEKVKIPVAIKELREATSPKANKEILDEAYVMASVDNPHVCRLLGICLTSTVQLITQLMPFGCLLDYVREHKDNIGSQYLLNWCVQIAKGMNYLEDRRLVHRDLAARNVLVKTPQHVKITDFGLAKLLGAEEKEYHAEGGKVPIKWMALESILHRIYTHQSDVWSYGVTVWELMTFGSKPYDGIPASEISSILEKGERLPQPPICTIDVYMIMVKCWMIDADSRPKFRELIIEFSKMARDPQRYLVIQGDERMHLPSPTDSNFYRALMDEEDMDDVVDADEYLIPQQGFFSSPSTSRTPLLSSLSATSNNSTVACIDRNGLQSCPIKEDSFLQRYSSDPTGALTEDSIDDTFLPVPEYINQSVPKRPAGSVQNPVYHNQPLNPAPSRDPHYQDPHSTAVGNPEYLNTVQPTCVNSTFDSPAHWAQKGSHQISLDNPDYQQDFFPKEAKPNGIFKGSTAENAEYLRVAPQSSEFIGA
Chain of HER2 (ErbB2) (P04626 23-1255): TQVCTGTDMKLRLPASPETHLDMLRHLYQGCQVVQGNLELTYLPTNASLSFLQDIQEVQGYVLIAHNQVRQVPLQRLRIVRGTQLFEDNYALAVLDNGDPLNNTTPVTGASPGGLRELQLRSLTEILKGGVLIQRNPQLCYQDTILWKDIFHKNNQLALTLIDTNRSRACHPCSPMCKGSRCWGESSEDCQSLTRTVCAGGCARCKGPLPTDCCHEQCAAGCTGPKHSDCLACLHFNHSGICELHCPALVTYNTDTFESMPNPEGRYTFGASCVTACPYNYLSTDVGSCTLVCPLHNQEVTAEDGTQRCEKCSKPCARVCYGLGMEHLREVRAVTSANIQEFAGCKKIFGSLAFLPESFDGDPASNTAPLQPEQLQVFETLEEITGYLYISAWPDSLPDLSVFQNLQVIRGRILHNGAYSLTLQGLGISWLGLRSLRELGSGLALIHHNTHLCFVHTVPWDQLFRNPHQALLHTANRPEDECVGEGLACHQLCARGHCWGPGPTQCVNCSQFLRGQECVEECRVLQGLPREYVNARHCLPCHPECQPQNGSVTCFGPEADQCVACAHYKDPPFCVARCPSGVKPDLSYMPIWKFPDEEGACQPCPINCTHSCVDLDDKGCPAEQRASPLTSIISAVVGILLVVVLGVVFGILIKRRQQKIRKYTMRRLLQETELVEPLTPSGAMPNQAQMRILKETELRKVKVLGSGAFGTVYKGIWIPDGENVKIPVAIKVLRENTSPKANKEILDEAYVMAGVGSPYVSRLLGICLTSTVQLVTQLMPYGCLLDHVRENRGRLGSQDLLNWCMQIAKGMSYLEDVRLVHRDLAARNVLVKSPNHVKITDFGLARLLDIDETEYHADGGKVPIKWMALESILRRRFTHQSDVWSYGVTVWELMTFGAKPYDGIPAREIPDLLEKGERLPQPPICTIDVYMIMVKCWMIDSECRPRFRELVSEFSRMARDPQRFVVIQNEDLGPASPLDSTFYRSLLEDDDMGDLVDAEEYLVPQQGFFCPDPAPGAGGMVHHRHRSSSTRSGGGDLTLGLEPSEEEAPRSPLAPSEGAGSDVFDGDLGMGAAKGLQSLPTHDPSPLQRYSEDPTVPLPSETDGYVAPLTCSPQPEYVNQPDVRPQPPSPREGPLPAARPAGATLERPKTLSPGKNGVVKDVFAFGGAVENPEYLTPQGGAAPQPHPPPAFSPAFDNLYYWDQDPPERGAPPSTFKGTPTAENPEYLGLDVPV
Chain of CYP2C19 (P33261 whole entry): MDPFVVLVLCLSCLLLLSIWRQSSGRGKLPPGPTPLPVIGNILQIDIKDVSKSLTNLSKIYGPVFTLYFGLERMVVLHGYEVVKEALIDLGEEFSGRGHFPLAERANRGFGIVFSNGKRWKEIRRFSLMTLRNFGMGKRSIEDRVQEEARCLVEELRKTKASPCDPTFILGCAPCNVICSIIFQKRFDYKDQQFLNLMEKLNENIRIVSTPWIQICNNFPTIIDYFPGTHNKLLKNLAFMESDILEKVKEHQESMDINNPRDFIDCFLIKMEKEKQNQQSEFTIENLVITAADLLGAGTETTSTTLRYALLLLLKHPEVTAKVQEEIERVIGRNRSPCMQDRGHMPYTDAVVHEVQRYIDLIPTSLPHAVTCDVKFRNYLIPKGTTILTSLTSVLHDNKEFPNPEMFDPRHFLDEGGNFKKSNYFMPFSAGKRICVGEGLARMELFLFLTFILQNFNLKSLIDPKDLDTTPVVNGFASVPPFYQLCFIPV
Chain of CYP2C9 (P11712 whole entry): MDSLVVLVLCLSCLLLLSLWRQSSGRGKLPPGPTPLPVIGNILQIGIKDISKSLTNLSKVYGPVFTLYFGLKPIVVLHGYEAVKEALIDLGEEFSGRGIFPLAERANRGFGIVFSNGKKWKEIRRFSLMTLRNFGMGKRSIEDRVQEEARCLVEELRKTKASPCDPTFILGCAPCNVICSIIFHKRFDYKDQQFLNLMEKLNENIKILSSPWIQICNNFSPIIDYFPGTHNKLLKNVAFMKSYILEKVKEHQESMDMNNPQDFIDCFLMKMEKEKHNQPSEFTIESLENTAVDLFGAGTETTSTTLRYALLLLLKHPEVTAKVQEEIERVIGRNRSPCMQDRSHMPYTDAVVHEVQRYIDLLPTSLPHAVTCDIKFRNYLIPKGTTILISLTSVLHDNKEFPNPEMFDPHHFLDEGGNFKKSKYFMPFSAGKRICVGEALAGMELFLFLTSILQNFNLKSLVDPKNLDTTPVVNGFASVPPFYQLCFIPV
Chain of HER4 (ErbB4) (Q15303 26-1308): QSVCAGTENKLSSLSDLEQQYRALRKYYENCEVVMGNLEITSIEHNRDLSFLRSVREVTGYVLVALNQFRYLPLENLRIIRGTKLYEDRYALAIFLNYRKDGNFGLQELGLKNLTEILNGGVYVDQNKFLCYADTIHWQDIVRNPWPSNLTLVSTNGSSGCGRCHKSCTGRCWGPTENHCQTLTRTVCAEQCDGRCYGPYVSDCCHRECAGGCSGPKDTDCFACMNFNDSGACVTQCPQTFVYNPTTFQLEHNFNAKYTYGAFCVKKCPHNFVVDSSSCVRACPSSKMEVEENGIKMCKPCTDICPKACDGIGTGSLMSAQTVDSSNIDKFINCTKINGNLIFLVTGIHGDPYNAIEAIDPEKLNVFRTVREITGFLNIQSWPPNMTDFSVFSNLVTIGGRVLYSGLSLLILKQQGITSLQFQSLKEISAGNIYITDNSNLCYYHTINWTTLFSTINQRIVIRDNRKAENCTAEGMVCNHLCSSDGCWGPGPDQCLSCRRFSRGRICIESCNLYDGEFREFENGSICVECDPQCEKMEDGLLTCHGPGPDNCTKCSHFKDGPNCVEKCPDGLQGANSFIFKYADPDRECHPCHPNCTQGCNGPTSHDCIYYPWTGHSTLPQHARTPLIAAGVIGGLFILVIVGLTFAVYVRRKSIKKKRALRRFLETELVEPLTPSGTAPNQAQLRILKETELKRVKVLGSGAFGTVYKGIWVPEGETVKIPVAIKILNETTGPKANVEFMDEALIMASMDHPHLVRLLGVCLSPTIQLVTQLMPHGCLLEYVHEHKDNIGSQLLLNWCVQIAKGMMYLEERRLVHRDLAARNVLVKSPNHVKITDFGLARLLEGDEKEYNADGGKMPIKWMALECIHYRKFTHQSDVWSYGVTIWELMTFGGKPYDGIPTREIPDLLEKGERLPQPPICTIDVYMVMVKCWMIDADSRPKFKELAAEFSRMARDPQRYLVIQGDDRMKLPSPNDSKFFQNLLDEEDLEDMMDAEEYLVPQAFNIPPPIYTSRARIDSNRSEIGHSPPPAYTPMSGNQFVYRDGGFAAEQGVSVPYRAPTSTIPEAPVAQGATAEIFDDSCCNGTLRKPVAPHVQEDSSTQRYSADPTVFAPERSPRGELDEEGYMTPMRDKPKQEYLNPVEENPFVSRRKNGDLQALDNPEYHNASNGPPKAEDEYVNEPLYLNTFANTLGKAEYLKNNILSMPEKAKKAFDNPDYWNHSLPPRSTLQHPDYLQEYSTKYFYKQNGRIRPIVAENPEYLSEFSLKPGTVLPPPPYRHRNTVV

Consider `Cc1cc(Nc2ncnn3ccc(CN4CCC(N)CC4)c23)ccc1Oc1ccn2ncnc2c1` [Example 4], for which the concentration for half-maximal inhibition (IC50) is 161 nM in data set [1]; 12 nM in data set [2]; 156 nM in data set [3]; more than 50000 nM in data set [4]; 36100 nM in data set [5]; 32400 nM in data set [6]. The “body weight of the mice in the treatment group” value in data set [7] is “decreased slightly”. This molecule also yielded a T/C in data set [7] (day 21) of 2.92%. In addition, in data set [7] (day 21), the TGI was found to be 112.13%. Also, the “Tumor volume (Day 21)” value in data set [7] (day 21, mean ± SEM) was 29 mm^3 and 29 ± 7 mm^3. The concentration at 0.5 h in data set [8] (setting [9]) is 0.538 µM; in data set [8] (setting [10]), 8.6 µM; in data set [8] (setting [11]) it was 9.45 µM. For the same molecule, the concentration at 1 h turned out to be 0.631 µM in data set [8] (setting [9]), 7.58 µM in data set [8] (setting [10]) and 11.2 µM in data set [8] (setting [11]). Besides, the concentration at 2 h in data set [8] (setting [9]) is 1.01 µM; in data set [8] (setting [10]), 12.8 µM; in data set [8] (setting [11]), 21.4 µM.
